From patent US9120791B2, “Indolizine compounds, a process for their preparation and pharmaceutical compositions containing them” (LES LABORATOIRES SERVIER, priority 2012, dated 2015)
Structures can show the parent of a compound that is named as a salt.

Test system: RS4;11 leukaemia tumour line
Assay: In vitro cytotoxicity (Microculture Tetrazolium Assay, 48 hours)
Assay type: cell-based
Details: Homo sapiens, RS4;11 cells, 48 hours exposure, MTT, concentration that inhibits cell viability by 50%, read-out: IC50 (nM) MTT RS4
Description: The cytotoxicity studies were carried out on the RS4;11 leukaemia tumour line.
The cells are distributed onto microplates and exposed to the test compounds for 48 hours.

SMILES	IC50
Cn1ccc2cc(N(C(=O)c3cc(-c4cc5c(cc4C(=O)N4Cc6ccccc6C[C@H]4CN4CCOCC4)OCO5)n4c3CCCCC4)c3ccc(O)cc3)ccc21 [Example 84, hydrochloride]	20.6 nM
Cn1ccc2cc(N(C(=O)c3cc(-c4cc(Br)ccc4C(=O)N4Cc5ccccc5C[C@H]4CN4CCOCC4)n4c3CCCC4)c3ccc(O)cc3)ccc21 [Example 18, 3-{5-Bromo-2-[((3S)-3-(4-morpholinylmethyl)-3,4-dihydro-2(1H)-isoquinolinyl)carbonyl]phenyl}-N-(4-hydroxyphenyl)-N-(1-methyl-1H-indol-5-yl)-5,6,7,8-tetrahydro-1-indolizine carboxamide hydrochloride]	24.9 nM
CN1CCN(C[C@@H]2Cc3ccccc3CN2C(=O)c2ccc(Cl)cc2-c2cc(C(=O)N(c3ccc(O)cc3)c3ccc4c(ccn4C)c3)c3n2CCCC3)CC1 [Example 30, 3-{5-Chloro-2-[((3S)-3-[(4-methyl-1-piperazinyl)methyl]-3,4-dihydro-2(1H)-isoquinolinyl)carbonyl]phenyl}-N-(4-hydroxyphenyl)-N-(1-methyl-1H-indol-5-yl)-5,6,7,8-tetrahydro-1-indolizine carboxamide bis(hydrochloride)]	8.59 nM
O=C(c1cc(-c2cc3c(cc2C(=O)N2Cc4ccccc4C[C@H]2CN2CCS(=O)(=O)CC2)OCO3)n2c1CCCC2)N(c1ccccc1)c1ccc(O)cc1 [Example 147, 3-(6-{[(3S)-3-[(1,1-Dioxidothiomorpholin-4-yl)methyl]-3,4-dihydroisoquinolin-2(1H)-yl]carbonyl}-1,3-benzodioxol-5-yl)-N-(4-hydroxyphenyl)-N-phenyl-5,6,7,8-tetrahydroindolizine-1-carboxamide hydrochloride]	74.2 nM
O=C(c1cc(-c2cc(Cl)ccc2C(=O)N2Cc3ccccc3C[C@H]2CN2CCOCC2)n2c1CCCC2)N(c1ccncc1)c1ccc(O)cc1 [Example 144, 3-(5-Chloro-2-{[(3S)-3-(morpholin-4-ylmethyl)-3,4-dihydroisoquinolin-2(1H)-yl]carbonyl}phenyl)-N-(4-hydroxyphenyl)-N-(pyridin-4-yl)-5,6,7,8-tetrahydroindolizine-1-carboxamide bis(hydrochloride)]	59.9 nM
Cl.[2H]C1([2H])Oc2cc(C(=O)N3Cc4ccccc4C[C@H]3CN3CCOCC3)c(-c3cc(C(=O)N(c4ccc(O)cc4)c4ccc5c(ccn5C)c4)c4n3CCCC4)cc2O1 [Example 37, N-(4-Hydroxyphenyl)-N-(1-methyl-1H-indol-5-yl)-3-{2,2-dideuterio-6-[((3S)-3-(4-morpholinylmethyl)-3,4-dihydro-2(1H)-isoquinolinyl)carbonyl]-1,3-benzodioxol-5-yl}-5,6,7,8-tetrahydro-1-indolizine carboxamide hydrochloride]	11.6 nM
O=C(c1cc(-c2cc3c(cc2C(=O)N2Cc4ccccc4C[C@H]2CN2CCOCC2)OCO3)n2c1CCCC2)N(c1ccccc1)c1ccc(O)cc1 [Example 1, N-(4-Hydroxyphenyl)-3-{6-[((3S)-3-(4-morpholinylmethyl)-3,4-dihydro-2(1H)-isoquinolinyl)carbonyl]-1,3-benzdioxol-5-yl}-N-phenyl-5,6,7,8-tetrahydro-1-indolizine carboxamide hydrochloride]	60.1 nM
COCCN(C)C[C@@H]1Cc2ccccc2CN1C(=O)c1cc2c(cc1-c1cc(C(=O)N(c3ccccc3)c3ccc(O)cc3)c3n1CCCC3)OCO2 [Example 146, N-(4-Hydroxyphenyl)-3-(6-{[(3S)-3-{[(2-methoxyethyl)(methyl)amino]-methyl}-3,4-dihydroisoquinolin-2(1H)-yl]carbonyl}-1,3-benzodioxol-5-yl)-N-phenyl-5,6,7,8-tetrahydroindolizine-1-carboxamide hydrochloride]	153 nM
O=C(c1cc(-c2cc(Cl)ccc2C(=O)N2Cc3ccccc3C[C@H]2CN2CCOCC2)n2c1CCCC2)N(c1ccc(O)cc1)c1cncnc1 [Example 141, 3-(5-Chloro-2-{[(3S)-3-(morpholin-4-ylmethyl)-3,4-dihydroisoquinolin-2(1H)-yl]carbonyl}phenyl)-N-(4-hydroxyphenyl)-N-(pyrimidin-5-yl)-5,6,7,8-tetrahydroindolizine-1-carboxamide hydrochloride]	72.5 nM
O=C(c1cc(-c2cc(Cl)ccc2C(=O)N2Cc3ccccc3C[C@H]2CN2CCOCC2)n2c1CCCC2)N(c1ccc(O)cc1)c1cccnc1 [Example 142, 3-(5-Chloro-2-{[(3S)-3-(morpholin-4-ylmethyl)-3,4-dihydroisoquinolin-2(1H)-yl]carbonyl}phenyl)-N-(4-hydroxyphenyl)-N-(pyridin-3-yl)-5,6,7,8-tetrahydroindolizine-1-carboxamide bis(hydrochloride)]	66.1 nM
COc1ccc(N(C(=O)c2cc(-c3cc(Cl)ccc3C(=O)N3Cc4ccccc4C[C@H]3CN3CCOCC3)n3c2CCCC3)c2ccc(O)cc2)cc1F [Example 145, 3-(5-Chloro-2-{[(3S)-3-(morpholin-4-ylmethyl)-3,4-dihydroisoquinolin-2(1H)-yl]carbonyl}phenyl)-N-(3-fluoro-4-methoxyphenyl)-N-(4-hydroxyphenyl)-5,6,7,8-tetrahydroindolizine-1-carboxamide hydrochloride]	28.9 nM
COc1c(F)cc(N(C(=O)c2cc(-c3cc(Cl)ccc3C(=O)N3Cc4ccccc4C[C@H]3CN3CCOCC3)n3c2CCCC3)c2ccc(O)cc2)cc1F [Example 143, 3-(5-Chloro-2-{[(3S)-3-(morpholin-4-ylmethyl)-3,4-dihydroisoquinolin-2(1H)-yl]carbonyl}phenyl)-N-(3,5-difluoro-4-methoxyphenyl)-N-(4-hydroxyphenyl)-5,6,7,8-tetrahydroindolizine-1-carboxamide hydrochloride]	43.8 nM
Cl.[2H]C1([2H])Oc2cc(C(=O)N3Cc4ccccc4C[C@H]3CN3CCOCC3)c(-c3cc(C(=O)N(c4ccccc4)c4ccc(O)cc4)c4n3CCCC4)cc2O1 [Example 38, N-(4-Hydroxyphenyl)-3-{2,2-dideuterio-6-[((3S)-3-(4-morpholinylmethyl)-3,4-dihydro-2(1H)-isoquinolinyl)carbonyl]-1,3-benzodioxol-5-yl}-N-phenyl-5,6,7,8-tetrahydro-1-indolizine carboxamide hydrochloride]	61.8 nM
Cn1ccc2cc(N(C(=O)c3cc(-c4cc5c(cc4C(=O)N4Cc6ccccc6C[C@H]4CN4CCOCC4)OCO5)n4c3CCCC4)c3ccc(O)cc3)ccc21 [Example 10, N-[4-(Hydroxy)phenyl]-N-(1-methyl-1H-indol-5-yl)-3-{6-[((3S)-3-(4-morpholinylmethyl)-3,4-dihydro-2(1H)-isoquinolinyl)carbonyl]-1,3-benzodioxol-5-yl}-5,6,7,8-tetrahydro-1-indolizine carboxamide hydrochloride]	11 nM

Same assay, conditions: RS4;11 cells, 48 hours exposure, MTT, concentration that inhibits cell viability by 50%, read-out: IC50 (nM) MTT RS4

SMILES	IC50
CCOc1ccc(C(=O)N2Cc3ccccc3C[C@H]2CN2CCOCC2)c(-c2cc(C(=O)N(c3ccc(O)cc3)c3ccc4c(ccn4C)c3)c3n2CCCC3)c1 [Example 36, 3-{5-Ethoxy-2-[((3S)-3-(4-morpholinylmethyl)-3,4-dihydro-2(1H)-isoquinolinyl)carbonyl]phenyl}-N-(4-hydroxyphenyl)-N-(1-methyl-H-indol-5-yl)-5,6,7,8-tetrahydro-1-indolizine carboxamide hydrochloride]	135 nM

Biological target: Bcl-2 protein (Homo sapiens (Human), UniProt P10415)
Assay: Inhibition of Bcl-2 by the fluorescence polarisation technique
Assay type: binding
Details: fluorescence polarisation test; concentration that inhibits fluorescence polarisation by 50%; read-out: IC50 (nM) Bcl-2 FP
Description: The fluorescence polarisation tests were carried out on microplates (384 wells). […] After incubation for 2 hours, the fluorescence polarisation is measured.

Chain of Bcl-2 protein (P10415 whole entry): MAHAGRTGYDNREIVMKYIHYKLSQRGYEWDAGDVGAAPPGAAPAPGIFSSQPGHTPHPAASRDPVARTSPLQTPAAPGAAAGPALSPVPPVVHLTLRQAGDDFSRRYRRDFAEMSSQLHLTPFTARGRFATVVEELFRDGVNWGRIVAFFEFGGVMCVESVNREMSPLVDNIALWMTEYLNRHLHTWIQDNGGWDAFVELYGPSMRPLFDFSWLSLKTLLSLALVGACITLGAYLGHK

IC50	SMILES
32 nM	Cn1ccc2cc(N(C(=O)c3cc(-c4cc(Br)ccc4C(=O)N4Cc5ccccc5C[C@H]4CN4CCOCC4)n4c3CCCC4)c3ccc(O)cc3)ccc21 [Example 18, 3-{5-Bromo-2-[((3S)-3-(4-morpholinylmethyl)-3,4-dihydro-2(1H)-isoquinolinyl)carbonyl]phenyl}-N-(4-hydroxyphenyl)-N-(1-methyl-1H-indol-5-yl)-5,6,7,8-tetrahydro-1-indolizine carboxamide hydrochloride]
13 nM	CN1CCN(C[C@@H]2Cc3ccccc3CN2C(=O)c2ccc(Cl)cc2-c2cc(C(=O)N(c3ccc(O)cc3)c3ccc4c(ccn4C)c3)c3n2CCCC3)CC1 [Example 30, 3-{5-Chloro-2-[((3S)-3-[(4-methyl-1-piperazinyl)methyl]-3,4-dihydro-2(1H)-isoquinolinyl)carbonyl]phenyl}-N-(4-hydroxyphenyl)-N-(1-methyl-1H-indol-5-yl)-5,6,7,8-tetrahydro-1-indolizine carboxamide bis(hydrochloride)]
